Measurements published in US6025387A, “Gastroprotective flavone/flavanone compounds with therapeutic effect on inflammatory bowel disease” (Dong a Pharmaceutical Co., Ltd., priority 1996, dated 2000).

Experiments:
cyclooxygenase [1] = test: Cyclooxygenase activity in HUVEC (PGE2 synthesis); type: cell-based
Procedure: (§1) Measurment of Cyclooxygenase Actvity
(§2) After addition of the compound to cultured HUVEC, the HUVEC was incubated at 37° C., for 30 minutes, then arachidonic acid (final concentration: 30 .rho.M) was added, and the HUVEC was additionally incubated at 37° C. for 15 minutes. The culture medium was taken, and the activity of cyclooxygenase for 6-Keto-PGF1 α or PGE2 was measured by radioimmunoassay (Mitchell, J. A., et al., Pro. Natl. Acad. Sci. USA 1994, 90: 11693-11697).
**SC200 (μg/mL) : Concentration at increasing generation of […]

[2] = system: gastric mucosal damage induced by ethanolic HCl; test: Gastritis model induced with ethanolic-HCl; type: in vivo, SD male rat; settings: po, 1 h, rat; for inhibition in vivo at 0.3 mg/kg: 0.3 mg/kg p.o.; for inhibition in vivo at 1 mg/kg: 1 mg/kg p.o.; for inhibition in vivo at 3 mg/kg: 3 mg/kg p.o.
Procedure: Effect on the Gastritis Model Induced with Ethanolic-HCl.
SD male rat(250-350 g) was fasted for 24 hours. The compound was orally administered in suspension of 5% HPMC, and after 1 hour 1.5 mL of 150 mM HCl-80% ethanol was orally administered. After 1 hour the rat was sacrifieced and the stomach was extracted and the ulcer index was measured. The ulcer index was shown by the area of hemorrhage lesion(Mizui, T, et al., Jpn. J. Pharmacol. 1983, 33: 939).

cyclooxygenase [3] = test: Cyclooxygenase activity in HUVEC (PGF1 α synthesis); type: cell-based
Procedure: as §1, §2
**SC200 (ug/mL) : Concentration at increasing generation of […]

[4] = system: chronic gastritis induced with acetic acid; test: Model of chronic gastritis induced with acetic acid; type: in vivo, SD male rat; settings: once a day for 21 days, rat
Procedure: Experiment on the Model of Chronic Gastritis Induced with Acetic Acid
From the next day of the surgical operation, the compound was orally administered once a day for 21 days. After 21 days, the stomach was extracted under ether anesthesis, dipped in 1% formalin solution and the area of gastric lesion was measured. […] An pathological tissue autopsy was carried out for the prepared specimen.

TNBS-induced colitis [5] = test: TNBS-induced colitis model, oral administration; type: in vivo, male SD rats; settings: for lesion scores: once a day for 13 days, rat; for adhesion degree / dilation and extention degree: score 0-3, rat
Procedure: (§3) Experiment on the Model of Inflammatory Bowl Diseases Induced with TNBS
(§4) 7 week-aged male SD rats were fasted for a day, and the rats were put under anesthesia and canula (diameter 3 mm) was inserted into the anus to the depth of 8 cm. 25 mg/mL of TNBS (Trinitrobenzene sulfonic acid) dissolved in 50% ethanol solution was injected to each rat and the rats were positioned at feature of tail up for 1 minute. The solution flowing out was removed and the rats were once washed with 1.5 mL of saline solution. After colitis was induced, the compound was administered orally or intracolonically once a day for 13 days. For control, mesalazine (5-amino salicylic acid) was used for oral administration and prednisolone was used for rectal administration. At 14th day of experiment, each group of the rats were put under ether anesthesis, the colon was extracted and the degree of adhesion and extension of the large intestine were measured and their lesion scores were recorded. After 1% formalin solution was injected to the cavity of the extracted colon to inflate, the both ends of it were bonded with each other and it was all-fixed in 1% formalin solution for 2 hours. The all-fixed colon was cut to lengthy direction and washed to remove surrounding fat tissues and connective fissaes. After cecum was removed, the weight of the colon and the rectum was measured, and the area of ulcer lesion, and microscopic lesion were measured to mark scores according to the criterion. And they were fixed in 10% neutral formalin solution, and the tissue examination of lesion site was performed by general method to mark scores according to the criterion.
Clinical symptoms: Daily, we observed clinical symptoms and survival of the animals. And we measured the weight of the animals at the beginning day, third and eighth day of the experiment.
(0: non-adhesion, 1: adhesion exists but easily taken off by gloved hand, 2: more severe adhesion than 1 exists but easily taken off by scissors, 3: very severe adhesion exists, so it is difficult to be taken off by scissors because of possibility of its perforation.)
Degree of thickening and extension of the large intestine: We marked scores of the degree of thickness and extension of the large intestine according to the criterion, following the method of Kim et al., and compared with the average value of each group.
(0: lesion site non-existing, 1: a few degree of lesion, 2: intermediate degree of lesion, 3: severe degree of lesion)
We scored the lesion examined with the naked eye and compared the average value of each group. The standards of lesion scores as criterion of the damage of the colon by Wallace's method is as followings.
(§5) (0: normal, non-damaged, 1: congestion without ulcer 2: congestion and thickening of intestinal wall without ulcer, 3: an ulcer lesion without thickening of intestinal wall, 4: more than two ulcerous/inflammatory lesion, 5: more than two ulcerous/inflammatory lesion or the length of ulcerous/inflammatory lesion is more than 1 cm, 6-10: when the length of lesion is over 2 cm, one point increases everytime 1 cm of the length of ulcerous/inflammatory increases, for example, when the ulcer length is 3 cm, the point is 7.)
Microscopic evaluation: We trimmed the colon giving 3 cm interval from the rectum to the cecum, including the site of lesion examined with the naked eye, to make at least 4 specimens per an individual. […] When the lesion can not be examined with the naked eye, we trimmed the other specimen which has the lesion, with 3 cm interval.

TNBS-induced colitis [6] = test: TNBS-induced colitis model, intracolonic (rectal) administration; type: in vivo, male SD rats; settings: once a day for 13 days, rat
Procedure: as §3
as §4, with “The modified method of Shibata et al. (Dig. Endosc. 1993, 5: 13) was used. 7” for “7”
Macroscopic evaluation: We measured the number and the width of the ulcer and lesion area formed in the large intestine, by using modified Wallace's method (Can. J. Physiol. Pharmacol., 1988, 66: 422). We scored the lesion examined with the naked eye and compared the average value of each group. The standards of lesion scores as criterion of the damage of the colon by Wallace's method is as followings.
as §5

gastric mucus secretion = test: Measurement of gastric mucus; type: in vivo, SD male rat; settings: oral, rat
Procedure: Measurement of Gastric Mucus
The compound was orally administered into SD male rat (200~250 g). After 1 hour the stomach was extracted. The extracted stomach was immediately washed with 10 mL of cold 0.25M sucrose solution. The gastric mucosa was dyed with 0.1% alcian blue solution for 2 hours. After dyeing, the gastric mucosa was washed with 0.25M sucrose solution twice for 15 minutes and for 45 minutes. The dyed gastric mucosa was treated with 10 mL of 30% dioctyl sodium sulfosuccinate solution for 2 hours to extract dyed mucus completely and optical density of aqueous phase was measured spectrophotometrically at 655 nm. The amount of mucus in the gastric mucosa was shown as the amount of alcian blue after calibration (Kitagawa, H., et al., Drug Res. 1986, 36: 1240-1244).

5-lipoxygenase = target: T1, 5-lipoxygenase (Rattus norvegicus, UniProt P12527); test: 5-lipoxygenase activity (LTB4 in A23187-stimulated peritoneal neutrophils); type: cell-based
T1 construct: endogenous in cells; host or cells: casein-elicited rat peritoneal neutrophils
T1 sequence (P12527 1-673): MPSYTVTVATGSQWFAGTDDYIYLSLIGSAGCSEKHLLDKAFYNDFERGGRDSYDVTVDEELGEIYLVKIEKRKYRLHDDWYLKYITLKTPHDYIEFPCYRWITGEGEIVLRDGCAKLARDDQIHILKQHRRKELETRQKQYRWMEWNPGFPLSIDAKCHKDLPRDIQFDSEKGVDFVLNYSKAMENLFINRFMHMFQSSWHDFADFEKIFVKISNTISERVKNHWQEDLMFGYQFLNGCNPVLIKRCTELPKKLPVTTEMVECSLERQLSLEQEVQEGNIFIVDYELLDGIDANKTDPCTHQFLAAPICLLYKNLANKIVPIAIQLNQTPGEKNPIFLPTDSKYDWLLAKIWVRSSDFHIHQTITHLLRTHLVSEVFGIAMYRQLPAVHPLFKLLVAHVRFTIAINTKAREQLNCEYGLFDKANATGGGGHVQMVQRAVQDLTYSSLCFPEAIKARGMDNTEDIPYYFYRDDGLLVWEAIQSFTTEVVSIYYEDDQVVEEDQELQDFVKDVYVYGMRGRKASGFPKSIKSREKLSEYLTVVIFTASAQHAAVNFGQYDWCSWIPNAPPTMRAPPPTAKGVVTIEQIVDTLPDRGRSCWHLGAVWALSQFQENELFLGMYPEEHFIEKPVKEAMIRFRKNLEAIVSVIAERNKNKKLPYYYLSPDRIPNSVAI
Procedure: Measurement of 5-lipooxygenase Activity
Modified Safayhi et al.'s method (Safayhi, H., et al., Biochem. Pharmacol. 1985, 34: 2691) was used to this experiment. Peritoneal neutrophil was separated from the rat which was treated with casein solution. The compound was added to 10^7 cells (5×10^6 cells/mL, 2 mL) of neutrophil after 2 minutes Ca^2+ -ionophore, A23187 (1 μg/mL) was added and the mixture was incubared at 37° C. for 10 minutes. The reaction mixture was centrifuged and the supermatant was taken up. The amount of LTB4 in the supermatant was measured by radioimmunoassay.

Which results are given for `COc1ccc(C2CC(=O)c3c(cc(O)c(OC)c3O)O2)cc1OC` (stereo not drawn) [5,7-dihydroxy-3',4',6-trimethoxy flavanone]?
SC200, concentration increasing generation of PGE2 to 200% (cyclooxygenase [1]): 3.9 µg/mL; inhibition in vivo at 0.3 mg/kg [2]: 5%; inhibition in vivo at 1 mg/kg [2]: 49%; inhibition in vivo at 3 mg/kg [2]: 56%; SC200, concentration increasing generation of PGF1α to 200% (cyclooxygenase [3]): 34.6 µg/mL

For `COc1ccc(-c2cc(=O)c3c(OC)c(OC)c(OCC(=O)[O-])cc3o2)cc1OC.[Na+]` [7-carboxymethyloxy-3',4',5,6-tetramethoxy flavone sodium salt], which “inhibiting% (gastric lesion)” value ([4]; 0.3 mg/kg p.o.) is on record?
The value was 10%.

And the “inhibiting% (gastric lesion)” value ([4]; 3 mg/kg p.o.)?
Its value is 29%.

What about the “inhibiting% (gastric lesion)” value ([4]; 10 mg/kg p.o.) of the same compound?
Its value is 42%.

And the lesion scores (TNBS-induced colitis [5]; 1 mg/kg p.o.)?
Its lesion scores is 1.3.

And the adhesion degree (TNBS-induced colitis [5]; 1 mg/kg p.o.)?
Its adhesion degree is 0.5.

And the “dilation and extention degree” value (TNBS-induced colitis [5]; 1 mg/kg p.o.)?
The value was 0.3.

And the lesion scores (TNBS-induced colitis [5]; 10 mg/kg p.o.)?
Its lesion scores is 0.8.

And the adhesion degree (TNBS-induced colitis [5]; 10 mg/kg p.o.)?
Its adhesion degree is 0.6.

What about the “dilation and extention degree” value (TNBS-induced colitis [5]; 10 mg/kg p.o.) of the same compound?
Its value is 0.4.

And the lesion scores (TNBS-induced colitis [6]; 0.3 mg/kg rectally)?
Its lesion scores is 2.56.

And the lesion scores (TNBS-induced colitis [6]; 3 mg/kg rectally)?
Its lesion scores is 2.60.

For `COc1ccc(-c2cc(=O)c3c(OC)cc(OCC(=O)[O-])cc3o2)cc1OC.[Na+]` [7-carboxymethyloxy-3',4',5-trimethoxy flavone sodium salt], which “inhibiting% (gastric lesion)” value ([4]; 0.3 mg/kg p.o.) is on record?
The value was 4%.

What about the “inhibiting% (gastric lesion)” value ([4]; 3 mg/kg p.o.) of the same compound?
The value was 83%.

What about the “inhibiting% (gastric lesion)” value ([4]; 10 mg/kg p.o.) of the same compound?
Its value is 80%.

What about the lesion scores (TNBS-induced colitis [6]; 0.3 mg/kg rectally) of the same compound?
The lesion scores was 4.43.

What about the lesion scores (TNBS-induced colitis [6]; 3 mg/kg rectally) of the same compound?
The lesion scores was 0.86.

`COc1ccc(-c2cc(=O)c3c(OC)cc(OCC(=O)O)cc3o2)cc1OC` [7-carboxymethyloxy-3',4',5-trimethoxy flavone] was tested. Which “gastric mucus secretion, % Control” value (gastric mucus secretion; 0.3 mg/kg) did it give?
The value was 126.5 % Control.

What about the “gastric mucus secretion, % Control” value (gastric mucus secretion; 3 mg/kg) of the same compound?
The value was 122.8 % Control.

And the “gastric mucus secretion, % Control” value (gastric mucus secretion; 30 mg/kg)?
The value was 117.9 % Control.

What about the IC50 (5-lipoxygenase) of the same compound?
The IC50 was 35.5 µM.

What about the inhibition in vivo at 0.3 mg/kg [2] of the same compound?
The inhibition in vivo at 0.3 mg/kg was 58%.

What about the inhibition in vivo at 1 mg/kg [2] of the same compound?
Its inhibition in vivo at 1 mg/kg is 68%.

What about the inhibition in vivo at 3 mg/kg [2] of the same compound?
Its inhibition in vivo at 3 mg/kg is 85%.

What about the “SC200, concentration increasing generation of PGF1α to 200%” value (cyclooxygenase [3]) of the same compound?
The value was 14.35 µg/mL.

How did the IC50 (5-lipoxygenase) turn out when `CCCCCOc1cc2c(=O)cc(-c3ccc(OC)c(OC)c3)oc2cc1OCC(=O)O` [7-carboxymethyloxy-3',4'-dimethoxy-6-n-pentyloxy flavone] was run?
Its IC50 is 2.8 µM.

`CCCCOc1c(OCC(=O)O)cc2oc(-c3ccc(OC)c(OC)c3)cc(=O)c2c1O` [7-carboxymethyloxy-5-hydroxy-6-n-butyloxy-3',4'-dimethoxy flavone] was tested. Which IC50 (5-lipoxygenase) did it give?
Its IC50 is 26.3 µM.

What about the inhibition in vivo at 0.1 mg/kg ([2]; 0.1 mg/kg p.o.) of the same compound?
The inhibition in vivo at 0.1 mg/kg was 43%.

And the inhibition in vivo at 1 mg/kg [2]?
Its inhibition in vivo at 1 mg/kg is 61%.

And the inhibition in vivo at 10 mg/kg ([2]; 10 mg/kg p.o.)?
The inhibition in vivo at 10 mg/kg was 63%.

And the “SC200, concentration increasing generation of PGF1α to 200%” value (cyclooxygenase [3])?
The value was 2.41 µg/mL.

Which lesion scores (TNBS-induced colitis [6]; 1 mg/kg rectally) does the source give for `C[C@]12C=CC(=O)C=C1CC[C@@H]1[C@@H]2[C@@H](O)C[C@@]2(C)[C@H]1CC[C@]2(O)C(=O)CO` [prednisolone, reference compound] here?
Its lesion scores is 0.83.
